Data as given in patent US20090099158A1, “TETRAHYDROISOQUINOLINE COMPOUNDS AS MODULATORS OF THE HISTAMINE H3 RECEPTOR” (priority 2007, published 2009).

These compounds were tested against T1, cloned human H3 receptors (Homo sapiens, UniProt Q9Y5N1) (assay: H3 Receptor Binding (Human)). Details: cloned human H3 receptors stably expressed in SK-N-MC cells; average of the results obtained.
T1 construct: expressed in transfected cells; host or cells: SK-N-MC cells
Protocol: Binding of compounds to the cloned human H3 receptors, stably expressed in SK-N-MC cells, was performed as described by Barbier, A. J. et al. (Br. J. Pharmacol. 2004, 143(5), 649-661). Data for compounds tested in this assay are presented in Table 1 as an average of the results obtained.

T1 sequence (Q9Y5N1 whole entry): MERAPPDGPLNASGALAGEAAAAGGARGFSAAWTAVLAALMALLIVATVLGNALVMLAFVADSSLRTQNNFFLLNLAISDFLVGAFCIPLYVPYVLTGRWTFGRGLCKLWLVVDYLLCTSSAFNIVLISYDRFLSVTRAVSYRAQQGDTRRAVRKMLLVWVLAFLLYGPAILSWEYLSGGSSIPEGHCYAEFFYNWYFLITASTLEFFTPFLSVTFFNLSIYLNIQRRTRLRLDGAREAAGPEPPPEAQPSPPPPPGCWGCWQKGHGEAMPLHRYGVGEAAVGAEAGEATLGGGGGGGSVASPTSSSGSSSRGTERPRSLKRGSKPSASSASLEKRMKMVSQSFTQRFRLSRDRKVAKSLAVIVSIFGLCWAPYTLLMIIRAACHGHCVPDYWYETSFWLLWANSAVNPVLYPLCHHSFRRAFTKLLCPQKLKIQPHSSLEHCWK

| Compound | Ki |
| --- | --- |
| CC(C)N1CCCN(C(=O)c2ccc3c(c2)CCN(C(=O)OC(C)(C)C)C3)CC1 [Example 1, 6-(4-Isopropyl-[1,4]diazepane-1-carbonyl)-3,4-dihydro-1H-isoquinoline-2-carboxylic acid tert-butyl ester] | 8 nM |
| CC(C)(C)OC(=O)N1CCc2cc(C(=O)N3CCN(C4CCCC4)CC3)ccc2C1 [Example 2, 6-(4-Cyclopentyl-piperazine-1-carbonyl)-3,4-dihydro-1H-isoquinoline-2-carboxylic acid tert-butyl ester] | 230 nM |
| CC(C)(C)OC(=O)N1CCc2cc(C(=O)N3CCN(C4CCCCC4)CC3)ccc2C1 [Example 3, 6-(4-Cyclohexyl-piperazine-1-carbonyl)-3,4-dihydro-1H-isoquinoline-2-carboxylic acid tert-butyl ester] | 165 nM |
| CC(C)(C)OC(=O)N1CCc2cc(C(=O)N3CCN4CCCCC4C3)ccc2C1 (stereo not shown) [Example 4, 6-(Octahydro-pyrido[1,2-a]pyrazine-2-carbonyl)-3,4-dihydro-1H-isoquinoline-2-carboxylic acid tert-butyl ester] | 28 nM |
| O=C(c1ccc2c(c1)CCNC2)N1CCCCC1 [Example 6, Piperidin-1-yl-(1,2,3,4-tetrahydro-isoquinolin-6-yl)-methanone] | 3000 nM |
| O=C(c1ccc2c(c1)CCNC2)N1CCOCC1 [Example 7, Morpholin-4-yl-(1,2,3,4-tetrahydro-isoquinolin-6-yl)-methanone] | 4000 nM |
| O=C(c1ccc2c(c1)CCNC2)N1CCN(C2CCCC2)CC1 [Example 8, (4-Cyclopentyl-piperazin-1-yl)-(1,2,3,4-tetrahydro-isoquinolin-6-yl)-methanone] | 11 nM |
| O=C(c1ccc2c(c1)CCNC2)N1CCN(C2CCCCC2)CC1 [Example 9, (4-Cyclohexyl-piperazin-1-yl)-(1,2,3,4-tetrahydro-isoquinolin-6-yl)-methanone] | 14 nM |
| O=C(c1ccc2c(c1)CCNC2)N1CCN2CCCCC2C1 (stereo not shown) [Example 10, (Octahydro-pyrido[1,2-a]pyrazin-2-yl)-(1,2,3,4-tetrahydro-isoquinolin-6-yl)-methanone] | 16 nM |
| O=C(c1ccc2c(c1)CCN(Cc1ccccc1)C2)N1CCOCC1 [Example 13, (2-Benzyl-1,2,3,4-tetrahydro-isoquinolin-6-yl)-morpholin-4-yl-methanone] | > 10000 nM |
| O=C(c1ccc2c(c1)CCN(Cc1ccc(C(F)(F)F)cc1)C2)N1CCN(C2CCC2)CC1 [Example 14, (4-Cyclobutyl-piperazin-1-yl)-[2-(4-trifluoromethyl-benzyl)-1,2,3,4-tetrahydro-isoquinolin-6-yl]-methanone] | 20 nM |
| CC(C)N1CCN(C(=O)c2ccc3c(c2)CCN(Cc2ccc(Cl)c(Cl)c2)C3)CC1 [Example 19, [2-(3,4-Dichloro-benzyl)-1,2,3,4-tetrahydro-isoquinolin-6-yl]-(4-isopropyl-piperazin-1-yl)-methanone] | 29 nM |
| CC(C)N1CCN(C(=O)c2ccc3c(c2)CCN(Cc2ccc(C(F)(F)F)cc2)C3)CC1 [Example 20, (4-Isopropyl-piperazin-1-yl)-[2-(4-trifluoromethyl-benzyl)-1,2,3,4-tetrahydro-isoquinolin-6-yl]-methanone] | 19 nM |
| CC(C)N1CCN(C(=O)c2ccc3c(c2)CCN(Cc2ccccc2)C3)CC1 [Example 21, (2-Benzyl-1,2,34-tetrahydro-isoquinolin-6-yl)-(4-isopropyl-piperazin-1-yl)-methanone] | 28 nM |
| O=C(c1ccc2c(c1)CCN(Cc1ccc(C(F)(F)F)cc1)C2)N1CCN(C2CC2)CC1 [Example 23, (4-Cyclopropyl-piperazin-1-yl)-[2-(4-trifluoromethyl-benzyl)-1,2,3,4-tetrahydro-isoquinolin-6-yl]-methanone] | 114 nM |
| O=C(c1ccc2c(c1)CCN(Cc1ccc(Cl)cc1)C2)N1CCN(C2CC2)CC1 [Example 24, [2-(4-Chloro-benzyl)-1,2,3,4-tetrahydro-isoquinolin-6-yl]-(4-cyclopropyl-piperazin-1-yl)-methanone] | 75 nM |
| CC(=O)N1CCc2cc(C(=O)N3CCN(C(C)C)CC3)ccc2C1 [Example 29, 1-[6-(4-Isopropyl-piperazine-1-carbonyl)-3,4-dihydro-1H-isoquinolin-2-yl]-ethanone] | 80 nM |
| O=C(c1ccc2c(c1)CN(C(=O)C1CCCC1)CC2)N1CCCN(C2CCC2)CC1 [Example 37, [7-(4-Cyclobutyl-[1,4]diazepane-1-carbonyl)-3,4-dihydro-1H-isoquinolin-2-yl]-cyclopentyl-methanone] | 1 nM |
| O=C(c1ccc2c(c1)CN(C(=O)C1CCCCC1)CC2)N1CCCN(C2CCC2)CC1 [Example 38, [7-(4-Cyclobutyl-[1,4]diazepane-1-carbonyl)-3,4-dihydro-1H-isoquinolin-2-yl]-cyclohexyl-methanone] | 1 nM |
| CC(C)(C)C(=O)N1CCc2cc(C(=O)N3CCN(C4CCC4)CC3)ccc2C1 [Example 41, 1-[6-(4-Cyclobutyl-piperazine-1-carbonyl)-3,4-dihydro-1H-isoquinolin-2-yl]-2,2-dimethyl-propan-1-one] | 15 nM |
| O=C(CC1CCCC1)N1CCc2cc(C(=O)N3CCN(C4CCC4)CC3)ccc2C1 [Example 43, 1-[6-(4-Cyclobutyl-piperazine-1-carbonyl)-3,4-dihydro-1H-isoquinolin-2-yl]-2-cyclopentyl-ethanone] | 20 nM |

Second part, the compound after the results:

| Ki | Compound |
| --- | --- |
| 7000 nM | O=C(c1ccc2c(c1)CCN(Cc1ccccc1)C2)N1CCCCC1 [Example 12, (2-Benzyl-1,2,3,4-tetrahydro-isoquinolin-6-yl)-piperidin-1-yl-methanone] |
| 18 nM | O=C(c1ccc2c(c1)CCN(Cc1ccc(Cl)c(Cl)c1)C2)N1CCN(C2CCC2)CC1 [Example 16, (4-Cyclobutyl-piperazin-1-yl)-[2-(3,4-dichloro-benzyl)-1,2,3,4-tetrahydro-isoquinolin-6-yl]-methanone] |
| 15 nM | O=C(c1ccc2c(c1)CCN(Cc1ccc(Cl)cc1)C2)N1CCN(C2CCC2)CC1 [Example 17, [2-(4-Chloro-benzyl)-1,2,3,4-tetrahydro-isoquinolin-6-yl]-(4-cyclobutyl-piperazin-1-yl)-methanone] |
| 15 nM | N#Cc1ccc(CN2CCc3cc(C(=O)N4CCN(C5CCC5)CC4)ccc3C2)cc1 [Example 25, 4-[6-(4-Cyclobutyl-piperazine-1-carbonyl)-3,4-dihydro-1H-isoquinolin-2-ylmethyl]-benzonitrile] |
| 16 nM | CC(C)N1CCN(C(=O)c2ccc3c(c2)CCN(C(=O)c2ccccc2)C3)CC1 [Example 28, (2-Benzoyl-1,2,3,4-tetrahydro-isoquinolin-6-yl)-(4-isopropyl-piperazin-1-yl)-methanone] |
| 36 nM | CC(=O)N1CCc2cc(C(=O)N3CCN(C4CCC4)CC3)ccc2C1 [Example 30, 1-[6-(4-Cyclobutyl-piperazine-1-carbonyl)-3,4-dihydro-1H-isoquinolin-2-yl]-ethanone] |
| 87 nM | O=C(c1ccc2c(c1)CCN(C(=O)C1CCC1)C2)N1CCN(C2CCC2)CC1 [Example 31, Cyclobutyl-[6-(4-cyclobutyl-piperazine-1-carbonyl)-3,4-dihydro-1H-isoquinolin-2-yl]-methanone] |
| 14 nM | O=C(c1ccc2c(c1)CCN(C(=O)C1CC1)C2)N1CCN(C2CCC2)CC1 [Example 34, [6-(4-Cyclobutyl-piperazine-1-carbonyl)-3,4-dihydro-1H-isoquinolin-2-yl]-cyclopropyl-methanone] |
| 10 nM | O=C(c1ccc2c(c1)CCN(C(=O)c1ccccc1Cl)C2)N1CCN(C2CCC2)CC1 [Example 42, (2-Chloro-phenyl)-[6-(4-cyclobutyl-piperazine-1-carbonyl)-3,4-dihydro-1H-isoquinolin-2-yl]-methanone] |
| 19 nM | O=C(c1ccc2c(c1)CCN(C(=O)c1ccoc1)C2)N1CCN(C2CCC2)CC1 [Example 44, [6-(4-Cyclobutyl-piperazine-1-carbonyl)-3,4-dihydro-1H-isoquinolin-2-yl]-furan-3-yl-methanone] |
| 16 nM | CC(C)(C)C(=O)N1CCc2cc(C(=O)N3CCC[C@H]3CN3CCCC3)ccc2C1 [Example 47, (S)-2,2-Dimethyl-1-[6-(2-pyrrolidin-1-ylmethyl-pyrrolidine-1-carbonyl)-3,4-dihydro-1H-isoquinolin-2-yl]-propan-1-one] |
| 18 nM | O=C(c1ccccc1)N1CCc2cc(C(=O)N3CCC[C@H]3CN3CCCC3)ccc2C1 [Example 48, (S)-Phenyl-[6-(2-pyrrolidin-1-ylmethyl-pyrrolidine-1-carbonyl)-3,4-dihydro-1H-isoquinolin-2-yl]-methanone] |
| 46 nM | CC(C)(C)c1ccc(C(=O)N2CCc3cc(C(=O)N4CCC[C@H]4CN4CCCC4)ccc3C2)cc1 [Example 49, (S)-(4-tert-Butyl-phenyl)-[6-(2-pyrrolidin-1-ylmethyl-pyrrolidine-1-carbonyl)-3,4-dihydro-1H-isoquinolin-2-yl]-methanone] |
| 12 nM | O=C(c1ccccc1Cl)N1CCc2cc(C(=O)N3CCC[C@H]3CN3CCCC3)ccc2C1 [Example 50, (S)-(2-Chloro-phenyl)-[6-(2-pyrrolidin-1-ylmethyl-pyrrolidine-1-carbonyl)-3,4-dihydro-1H-isoquinolin-2-yl]-methanone] |
| 14 nM | O=C(c1cccc(Cl)c1)N1CCc2cc(C(=O)N3CCC[C@H]3CN3CCCC3)ccc2C1 [Example 51, (S)-(3-Chloro-phenyl)-[6-(2-pyrrolidin-1-ylmethyl-pyrrolidine-1-carbonyl)-3,4-dihydro-1H-isoquinolin-2-yl]-methanone] |
| 15 nM | N#Cc1cccc(C(=O)N2CCc3cc(C(=O)N4CCC[C@H]4CN4CCCC4)ccc3C2)c1 [Example 52, (S)-3-[6-(2-Pyrrolidin-1-ylmethyl-pyrrolidine-1-carbonyl)-3,4-dihydro-1H-isoquinoline-2-carbonyl]-benzonitrile] |
